Data reported in publication PMC9629815, “MK256 is a novel CDK8 inhibitor with potent antitumor activity in AML through downregulation of the STAT pathway” (Oncotarget, 2022).
Read-outs that look alike come from different tables or passages of the source.

What was measured:
MOLM-13 = assay: Cell proliferation assay (CellTiter-Glo, 7-day); assay type: cell-based; conditions: Homo sapiens, MOLM-13, 168 h
Description: [The procedure below names another cell line; the source lists this cell line under the same test.] (§1) AML cell lines MV-4-11, MOLM14, KG-1, and SKNO-1 were acquired from ATCC (Manassas, VA, USA) and DSMZ (Braunschweig, Germany). Cells were plated (96-well) in triplicate at 3000 cells per well for testing (n = 3) in 1% FBS media. On day 7, the CellTiter-Glo Luminescent Cell Viability Assay (Promega, Madison, WI, US) was performed to measure the response. Two independent experiments were done.

HEL = assay: Cell proliferation assay (CellTiter-Glo, 7-day); assay type: cell-based; conditions: Homo sapiens, 168 h
Description: [The procedure below names another cell line; the source lists this cell line under the same test.] as §1

MOLM-14 = assay: Cell proliferation assay (CellTiter-Glo, 7-day); assay type: cell-based; conditions: Homo sapiens, MOLM-14, 168 h
Description: as §1

KG-1 = assay: Cell proliferation assay (CellTiter-Glo, 7-day); assay type: cell-based; conditions: Homo sapiens, KG-1, 168 h
Description: as §1

MONO-MAC-6 = assay: Cell proliferation assay (CellTiter-Glo, 7-day); assay type: cell-based; conditions: Homo sapiens, MONO-MAC-6, 168 h
Description: [The procedure below names another cell line; the source lists this cell line under the same test.] as §1

MV-4-11 = assay: Cell proliferation assay (CellTiter-Glo, 7-day); assay type: cell-based; conditions: Homo sapiens, MV4-11, 168 h
Description: as §1

MOLM-14 cells = assay: Cell viability dose-response matrix of MK256 and venetoclax; assay type: cell-based; conditions: Homo sapiens, Venetoclax 0 nM, 72 hrs, read-out: percentage of cell viability
Description: Our earlier experiments showing the clearly increasing expression of BCL-2 in the MOLM-14 cell line led us to ask if there was any combinational effect between MK256 and a BCL-2 inhibitor in MOLM-14 cells. To address this question, we chose venetoclax (ABT-199), an FDA-approved BCL-2 inhibitor for AML and CLL, for the combination study. We treated MOLM-14 cells with MK256 and venetoclax at a series of concentration combinations, measured cell viability, and reported the data in a dose-response matrix (Figure 8). […] We also investigated the apoptotic effect of the combination treatment in the MOLM-14 cell line (Figure 10B).
Figure 10 (A) Dose-response matrix of percentage of cell viability of 10,000 MOLM-14 cells after 72 hrs treatment of MK256 and venetoclax at various concentration combinations. (B) Annexin V staining of 10,000 MOLM-14 cells after 72 hrs treatment of MK256 and venetoclax(ABT199) at various concentration combinations. Status of cells are labeled in the graph at the upper left corner. (C) Tumor growth of MOLM-14 xenograft model. Groups of control; ABT199 (25 mg/kg); ABT199 (25 mg/kg) + MK256 (10 mg/kg); ABT199 25 mg/kg + MK256 (50 mg/kg) were shown in straight line, dotted line, 3 dashed line and 2 dashed line, respectively. ^*** P < 0.001. (D) Body weight percentage of MOLM-14 tumor model. […]

CYP3A4-TS = CYP3A4-TS (Homo sapiens, UniProt P08684); assay: Cytochrome P450 inhibition assay; assay type: in vitro ADME; conditions: 50 uM
Chain of CYP3A4-TS (P08684 whole entry): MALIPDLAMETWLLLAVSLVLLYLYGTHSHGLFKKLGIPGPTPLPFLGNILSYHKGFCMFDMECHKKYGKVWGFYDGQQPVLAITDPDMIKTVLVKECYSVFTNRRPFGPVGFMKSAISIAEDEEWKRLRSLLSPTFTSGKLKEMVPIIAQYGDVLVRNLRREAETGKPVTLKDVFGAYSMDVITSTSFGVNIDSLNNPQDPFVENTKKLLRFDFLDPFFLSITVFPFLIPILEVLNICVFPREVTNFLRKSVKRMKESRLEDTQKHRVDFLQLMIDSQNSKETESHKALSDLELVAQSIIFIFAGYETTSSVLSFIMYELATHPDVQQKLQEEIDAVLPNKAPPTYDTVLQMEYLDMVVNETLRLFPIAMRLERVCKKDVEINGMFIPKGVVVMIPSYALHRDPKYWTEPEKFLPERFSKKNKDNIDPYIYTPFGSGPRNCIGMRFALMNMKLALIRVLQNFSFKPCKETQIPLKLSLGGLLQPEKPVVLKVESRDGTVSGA

[1] = Hepatocyte stability assay; assay type: in vitro ADME, Mouse
Description: Human LiverPoolTM 20-donor, dog and mouse cryopreserved hepatocytes were obtained from BioreclamationIVT. Cryopreserved hepatocytes were removed from the liquid nitrogen tank and thawed in a 37°C water bath. As soon as the cells pulled away from the vial wall, they were decanted into 48 ml of warm HT medium. Cells were centrifuged for four minutes at 420 rpm (50 g). After the supernatant was removed, the pellet was re-suspended in warm DMEM medium. Cell density was counted by a hemacytometer. The assay was carried out in 96-well microtiter plates. MK256 was incubated for 0, 60, 120, and 180 minutes at 37°C with hepatocytes. Reaction mixtures (50 μL) contained a final concentration of 1 μM MK256, 0.5 million cells/mL hepatocytes in the DMEM medium. At each time point (for example, 0, 1, 2, and 3 hrs), 200 μL of quench solution (100% acetonitrile with 0.1% formic acid) with internal standard were transferred to each well. […] All samples were analyzed on LC/MS/MS using an AB Sciex API 4000 instrument, coupled to a Shimadzu LC-20AD LC Pump system. […] The extent of metabolism was calculated as the disappearance of the test compound, compared to the 0-min control reaction incubations. Initial rates were calculated for the compound concentration and used to determine t1/2 values and subsequently, the intrinsic clearance, CLint = (0.693)(1/t1/2 (min))(mL incubation/million cells).

CYP2C9 = CYP2C9 (Homo sapiens, UniProt P11712); assay: Cytochrome P450 inhibition assay; assay type: in vitro ADME; conditions: 50 uM
Chain of CYP2C9 (P11712 whole entry): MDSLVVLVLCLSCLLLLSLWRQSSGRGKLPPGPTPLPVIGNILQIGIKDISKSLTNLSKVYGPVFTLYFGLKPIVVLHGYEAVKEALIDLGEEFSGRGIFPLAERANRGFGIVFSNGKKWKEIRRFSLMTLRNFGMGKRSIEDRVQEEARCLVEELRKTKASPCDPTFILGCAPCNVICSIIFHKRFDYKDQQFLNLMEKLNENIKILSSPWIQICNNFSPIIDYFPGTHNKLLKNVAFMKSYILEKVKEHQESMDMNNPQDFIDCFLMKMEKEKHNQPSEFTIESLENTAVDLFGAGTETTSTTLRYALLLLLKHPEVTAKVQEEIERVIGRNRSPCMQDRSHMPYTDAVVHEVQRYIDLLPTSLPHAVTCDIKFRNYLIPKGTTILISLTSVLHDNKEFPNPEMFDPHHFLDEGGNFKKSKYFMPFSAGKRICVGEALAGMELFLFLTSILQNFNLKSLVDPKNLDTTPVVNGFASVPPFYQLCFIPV

[2] = system: MCL-1 mRNA in MOLM-14 cells; assay: Real-time RT-PCR of MCL-1 mRNA; assay type: cell-based
Description: (§2) Total RNA from the various cell lines was isolated using the RNeasy extraction method (Qiagen, Valencia, CA, USA). First-strand cDNA was synthesized from total RNA by iScript cDNA synthesis (Bio-Rad, Hercules, CA, USA) according to the manufacturer’s instructions. Taqman RT–PCR analysis was performed on cDNA in a 384-well plate, using a Prism 7900HT Real-Time PCR System (Applied Biosystems, Foster City, CA, USA). Primers and Taqman probes were purchased from Applied Biosystems. The expression of target genes MCL1 (Hs03043899_m1, Thermo fisher) and CCL2 (Hs00234140_m1, Thermo fisher) in each sample was assayed in triplicate and normalized to human GUSB for mRNA expression analysis. An unpaired t test was used to calculate statistical significance.

MCL-1 mRNA in KG-1 cells = assay: Real-time RT-PCR of MCL-1 mRNA; assay type: cell-based
Description: as §2

CYP2D6 = CYP2D6 (Homo sapiens, UniProt P10635); assay: Cytochrome P450 inhibition assay; assay type: in vitro ADME; conditions: 50 uM
Chain of CYP2D6 (P10635 whole entry): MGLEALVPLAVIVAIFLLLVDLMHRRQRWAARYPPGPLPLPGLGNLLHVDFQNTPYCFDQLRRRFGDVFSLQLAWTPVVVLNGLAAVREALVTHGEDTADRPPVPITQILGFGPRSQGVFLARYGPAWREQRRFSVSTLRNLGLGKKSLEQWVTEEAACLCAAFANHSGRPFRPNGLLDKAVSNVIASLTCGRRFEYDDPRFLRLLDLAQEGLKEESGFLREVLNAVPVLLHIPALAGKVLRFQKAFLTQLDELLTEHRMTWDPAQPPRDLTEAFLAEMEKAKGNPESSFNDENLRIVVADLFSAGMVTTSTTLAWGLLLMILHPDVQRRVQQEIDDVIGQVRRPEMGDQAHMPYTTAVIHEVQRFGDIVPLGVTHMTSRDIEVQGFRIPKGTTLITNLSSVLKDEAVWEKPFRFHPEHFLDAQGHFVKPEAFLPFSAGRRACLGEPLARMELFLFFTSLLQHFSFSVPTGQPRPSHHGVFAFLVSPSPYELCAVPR

Nc1nccc2c(Br)cc3cc(C(=O)O)ccc3c12 [MK256]
IC50 (MOLM-13): 1050 nM
IC50 (HEL; 7-day, bound given in text, read-out: IC50): > 2000 nM
IC50 (HEL; read-out: IC50 nM (7-day)): 2700 nM
IC50 (MOLM-14): 24 nM
IC50 (KG-1): 80 nM
IC50 (MONO-MAC-6): 1260 nM
IC50 (MV-4-11): 23 nM
viability at 0.0015 µM (MOLM-14 cells; MK256 1.5 nM): 110%
viability at 0.0046 µM (MOLM-14 cells; MK256 4.6 nM): 101%
viability at 0.0137 µM (MOLM-14 cells; MK256 13.7 nM): 103%
viability at 0.0412 µM (MOLM-14 cells; MK256 41.2 nM): 103%
viability at 0.1235 µM (MOLM-14 cells; MK256 123.5 nM): 100%
viability at 0.3704 µM (MOLM-14 cells; MK256 370.4 nM): 90%
viability at 1.1 µM (MOLM-14 cells; MK256 1100 nM): 32%
viability at 10 µM (MOLM-14 cells; MK256 10000 nM): 0%
viability at 30 µM (MOLM-14 cells; MK256 30000 nM): 0%
cytochrome P450 inhibition (CYP3A4-TS): no inhibition
Clint (μL·min^−1·mg protein^−1) ([1]; Mouse hepatocytes): 5 μL·min^−1·mg protein^−1
half-life at 1 µM ([1]; mouse, cryopreserved mouse hepatocytes, read-out: T½): 5.18 h
cytochrome P450 inhibition (CYP2C9): no inhibition
MCL-1 mRNA level ([2]; 300 nM): barely changed
MCL-1 mRNA level downregulated by ([2]; 1 uM): ~ 30%
mRNA level decreased to (MCL-1 mRNA in KG-1 cells; 300 nM): 25%
mRNA level decreased to (MCL-1 mRNA in KG-1 cells; 1 uM): 30%
cytochrome P450 inhibition (CYP2D6): no inhibition
